Usually EC50 stands for the concentration giving half of the maximal effect. For orientation: IC50 means the concentration at which inhibition is half-maximal. One may read the inhibition as the relative decrease from the control value, in per cent.

Series [1] relates to J774.1 murine macrophages. Kind of series: Cytotoxicity assay on murine macrophages (MTT). It is filed as cell-based. Particulars: for EC50: read-out: EC50 (µM) for Mammalian Cells. The procedure:
J774.1 murine macrophages (ATCC, Rockville, MD, USA) were grown in a DMEM culture medium containing 4 mM L-glutamine, and supplemented with 10% FCS. The cells were seeded into a 96-well plate (5 × 10^4 cells in 200 µL culture medium) and incubated at 37 °C in a 5% CO2 atmosphere for 48 h, to allow cell adhesion before drug testing. Afterward, the cells were exposed for 48 h to the compounds (25–400 μM) or the vehicle (0.4% DMSO), and additional controls (cells in medium) were used in each test. Cell viability was then assessed by measuring the mitochondria-dependent reduction of MTT to formazan: for this, MTT in sterile PBS (0.2% glucose), pH 7.4, was added to the macrophages, to a final concentration of 0.1 mg/mL, and the cells were then incubated at 37 °C for 3 h. After removing the medium, the formazan crystals were dissolved in 180 μL of DMSO and 20 μL of MTT buffer (0.1 M glycine, 0.1 M NaCl, 0.5 mM EDTA, pH 10.5), and the absorbance was measured at 560 nm. The IC50 was defined as the drug concentration at which 50% of the cells were viable, relative to the control (no drug added), and was determined by analysis using OriginLab 8.5 Corporation, Northampton, MA, USA, sigmoidal regression (% of viable cells compared to the logarithm of the compound concentration). The tests were performed in triplicate in two independent experiments.

Series [2] deals with R. microplus triosephosphate isomerase (RmTIM) (Rhipicephalus microplus, UniProt A8B3A8). Kind of series: biochemical. The settings on record: for IC50: RmTIM, read-out: IC50. The procedure:
(§1) R. microplus triosephosphate isomerase (RmTIM) and Homo sapiens triosephosphate isomerase (HsTIM) were expressed in Escherichia coli, and purified as previously described in the literature. Protein concentration was determined by absorbance measurements at 280 nm for RmTIM (ε = 33440 M^−1cm^−1) and HsTIM (ε = 33460 M^−1cm^−1). Enzymatic activity was determined following the reaction of the conversion of glyceraldehyde-3-phosphate to dihydroxyacetone phosphate in a coupled enzyme assay using α-glycerol-phosphate dehydrogenase. The decrease in absorbance at 340 nm was recorded in a multiplate reader Varioskan™ Flash Multimode Reader (Thermo Scientific^TM, Waltham, MA, USA) at 25 °C. The reaction mixture ([…], pH 7.4) contained 100 mM triethanolamine, 10 mM EDTA, 0.2 mM NADH, 1 mM glyceraldehyde-3-phosphate, and 0.9 units of α-glycerol-phosphate dehydrogenase. The reaction was initiated by the addition of 5 ng/mL of the TIM of interest. For the inhibition studies (incubation mixture), TIM was incubated at a concentration of 5 mg/mL in a buffer of pH 7.4 containing 100 mM triethanolamine, 10 mM EDTA, and 10% DMSO at 25 °C for 1 h. The mixture also contained the compounds, dissolved in DMSO, at final concentrations of 10 and 100 μM. After 1 h, 10 μL of the incubation mixture was added to the reaction mixture, to a final volume of 100 μL in a 96-well plate. None of the molecules tested here affected the activity of α-glycerol-phosphate dehydrogenase (checked in situ on the reaction mixture inhibited, with the addition of fresh α-glycerol-phosphate dehydrogenase and running the measurement again). The IC50 value was taken as the concentration of drug needed to reduce the enzymatic activity by 50%, and was analyzed using OriginLab 8.5 Corporation, Northampton, MA, USA, sigmoidal regression (% of enzymatic activity vs. the logarithm of the compound concentration). The tests were performed in triplicate in two independent experiments.

For series [3], the target named is T1, Homo sapiens triosephosphate isomerase (HsTIM) (Homo sapiens, UniProt P60174).
T1 construct: made in house; host or cells: Escherichia coli
Nature of the series: Enzymatic activity of TIM, coupled enzyme assay. It is filed as biochemical. The procedure:
as §1

A further series has as its system R. microplus. Kind of series: Acaricidal activity on R. microplus (LIT and AIT, overall statement). It is filed as in vivo. Particulars: LIT 1 mM and AIT 1.5 mM. The procedure: After immersion, the fully engorged females were lightly dried with absorbent paper. […] The tubes carrying the eggs were closed with hydrophilic cotton, and were returned to the incubator chamber under the same conditions until the eggs hatched. The reproductive efficacy, as well as % control of each compound on R. microplus, was calculated according to published reports. The results were verified in two independent experiments. This assay was performed based on the method of Castro-Janer et al., 2011. […] The tubes were incubated in the same conditions as described above. The larvae were ready for testing after 14 to 21 days from egg-hatching. For the test, the compounds were diluted in DMSO, and were later resuspended in distilled water, always using 15% DMSO of the final solution volume. […] For the immersion procedure, tubes containing the larvae were placed vertically, without the cotton plug, and the larvae were taken with a brush from the top of the tube, ensuring they were viable. A cluster with a diameter of 2 mm of larvae was collected with a brush, and was later immersed in each solution, as well as in both control solutions, for 10 min. After this time, the solutions were drained, and the larvae were placed in 8.5 cm × 7.5 cm Whatman No. 1 filter papers. The filters were folded in the middle of the 8.5 cm side, and closed with 3 bulldog clips, forming packets. These packets were incubated for 24 h, under the same conditions as described previously, and then the percent of mortality was determined, considering it as the % of the control.

Series [4] has as its system embryonic cell line BME26. Kind of series: Phenotypic screening on BME26 cell cultures (MTT viability). Particulars: for inhibition at 100 µM: synthetic compounds at 100 μM, BME26, 24 h, read-out: % of Growth Inhibition. It is filed as cell-based, R. microplus. The procedure:
The embryonic cell line BME26 from R. microplus (Centro de Biotecnologia, Universidade Federal do Rio Grande do Sul, Porto Alegre, RS, Brazil) was grown as adherent monolayers in a complete medium, as described previously, which consisted of L-15B300 medium supplemented with 5% heat-inactivated Fetal Bovine Serum (FBS) (Gibco Co., Grand Island, NY), 10% Tryptose Phosphate Broth (TPB) (BD), penicillin (100 U/mL), streptomycin ([…], Gibco Co., Grand Island, NY, USA), and 0.1% bovine lipoprotein concentrate (ICN), (pH 7.2). The suspension of embryonic BME26 cells from R. microplus was seeded into 24-well plates (5 × 10^5 cells/well) to a final volume of 500 μL in a complete medium, and allowed to attach. After 24 h incubation at 34 °C, the extracts (100 µg/mL final concentration) and the compounds were added to the final concentrations indicated (1–100 µM), and 0.05% dimethylsulfoxide (DMSO) was used in the negative control wells. After 24 h of treatment, 50 μL of 3-(4,5-dimethylthiazol-2-yl)-2,5-diphenyltetrazolium bromide (MTT) prepared in serum-free medium (5 mg/mL) was added to each well. The media were discarded after 2 additional hours of incubation, and 1 mL of acid-isopropyl alcohol (0.15% HCl in isopropyl alcohol) was added to dissolve the formazan crystals. The mixture was transferred to 1.5 mL tubes, centrifuged at 6000× g for 15 min, and the clear supernatant was collected in new tubes for absorbance measurement at 570 nm using quartz cuvettes in a UVmini-1240 UV–vis spectrophotometer (Shimadzu, Japan). Absorbance values of the control treatment were used for normalization (100% viability). The activity was determined by analysis using OriginLab8.5® sigmoidal regression (% of viable cells compared to the logarithm of the compound concentration). The half-maximal inhibitory concentration (IC50), defined as the drug concentration at which 50% of the cells were viable relative to the control (no drug added), was used as a measurement of activity. These experiments were performed in triplicate for each compound.

For series [5], the system named is R. microplus (Mozo strain) larvae. Kind of series: Larval Immersion Test (LIT). It is filed as in vivo. The procedure: This assay was performed based on the method of Castro-Janer et al., 2011. Fully engorged females of R. microplus (Mozo strain) were incubated in Petri dishes at 27 °C and 85–90% relative humidity for 14 days. […] The tubes were incubated in the same conditions as described above. The larvae were ready for testing after 14 to 21 days from egg-hatching. For the test, the compounds were diluted in DMSO, and were later resuspended in distilled water, always using 15% DMSO of the final solution volume. The concentrations for the different compounds for the final immersion solution are 1 mg/mL for the extracts, and 1 mM for the compounds. […] For the immersion procedure, tubes containing the larvae were placed vertically, without the cotton plug, and the larvae were taken with a brush from the top of the tube, ensuring they were viable. A cluster with a diameter of 2 mm of larvae was collected with a brush, and was later immersed in each solution, as well as in both control solutions, for 10 min. After this time, the solutions were drained, and the larvae were placed in 8.5 cm × 7.5 cm Whatman No. 1 filter papers. The filters were folded in the middle of the 8.5 cm side, and closed with 3 bulldog clips, forming packets. These packets were incubated for 24 h, under the same conditions as described previously, and then the percent of mortality was determined, considering it as the % of the control.

The mark [6] stands for this setting: Mus musculus, J774.1, cytotoxicity.
The mark [7] stands for this setting: 1 h incubation, read-out: % Inhibition of Enzymatic Activity of RmTIM.

Read-outs that look alike come from different tables or passages of the source. Marks after values point to notes of the source that are not given here.

R. microplus triosephosphate isomerase (RmTIM), sequence (A8B3A8 entry or part of it): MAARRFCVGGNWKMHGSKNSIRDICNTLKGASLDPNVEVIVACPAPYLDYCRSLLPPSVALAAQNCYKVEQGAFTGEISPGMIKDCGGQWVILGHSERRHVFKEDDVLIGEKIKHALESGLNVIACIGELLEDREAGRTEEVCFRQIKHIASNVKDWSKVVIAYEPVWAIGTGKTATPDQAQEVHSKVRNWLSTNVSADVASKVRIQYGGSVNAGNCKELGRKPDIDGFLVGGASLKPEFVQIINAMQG
T1 sequence (P60174 whole entry): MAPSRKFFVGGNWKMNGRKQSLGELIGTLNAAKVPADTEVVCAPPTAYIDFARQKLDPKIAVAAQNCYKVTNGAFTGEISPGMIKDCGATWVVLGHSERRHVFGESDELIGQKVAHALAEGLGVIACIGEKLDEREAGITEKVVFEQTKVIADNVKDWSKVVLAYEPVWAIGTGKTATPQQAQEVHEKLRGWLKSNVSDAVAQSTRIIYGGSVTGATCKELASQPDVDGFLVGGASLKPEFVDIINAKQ

On to `O=C(N/N=C/C=C/c1ccco1)c1ccccn1` [compound 1367], for which the 50% effective concentration (EC50) in series [1] (setting [6]) was over 50 µM. In addition, the 50% inhibitory concentration (IC50) in series [2] is under 10 µM. Moreover, the inhibition at 10 µM in series [2] (setting [7]) was found to be 82%; in series [3], 0%. In the series with R. microplus, the “acaricidal activity (in words)” value was “did not show reproducible acaricidal activity”.
Regarding `Clc1ccc(-c2csc(/N=C/C=C/c3ccco3)n2)cc1` [compound 910], in series [1] (setting [6]), the EC50 was over 50 µM. The concentration for half-maximal inhibition (IC50) in series [2] was 23 ± 2 µM. The inhibition at 100 µM in series [2] (at 100 µM (**), 1 h incubation, read-out: % Inhibition of Enzymatic Activity of RmTIM) was 60%. The same compound registered an inhibition at 10 µM in series [3] of 0%. For the same compound, the “acaricidal activity (in words)” value in the series on R. microplus is “did not show reproducible acaricidal activity”.
Take `COc1cc(/C=C/c2cc(/C=C/[c-]3cccc3)[nH]n2)ccc1O.[Fe+2].c1cc[cH-]c1` [Mar106, 2-Methoxy-4-((E)-2-(5-((E)-ferrocenylvinyl)-1H-pyrazol-3-yl)vinyl)phenol]: the EC50 in series [1] (cytotoxicity) was over 25 µM. Moreover, the half-maximal inhibitory concentration (IC50) in series [2] was 25 ± 4 µM. For the same compound, the “% Inhibition of Enzymatic Activity of RmTIM” value in series [2] (at 100 µM (**), 1 h incubation) is listed as 69 ** %. Also, the “% Inhibition of Enzymatic Activity of HsTIM at 10 µM” value in series [3] stood at 0%. For the same compound, the “acaricidal activity (in words)” value in the series on R. microplus is reported as “did not show reproducible acaricidal activity”.
In the case of `Cc1c(/C=C/C(=O)c2ccccc2O)no[n+]1[O-]` [compound 1253], the half-inhibitory concentration (IC50) in series [4] (BME26 cells, 24 h, MTT, read-out: IC50) is 12 ± 1 µM; in series [1] (Mus musculus, J774.1, 48 h, read-out: IC50 (µM) Mammalian Cells), over 50 µM. Besides, in series [4], the inhibition at 100 µM came to 95%. Also, the “% of Mortality LIT” value in series [5] (compounds 1.0 mM, 10 min immersion, 24 h) is reported as 50 ± 8%. In addition, in the series with R. microplus, the “acaricidal activity (in words)” value is given as “acaricidal potential”.
For the compound `COc1cc(/C=C/C(=O)CC(=O)/C=C/[c-]2cccc2)ccc1O.[Fe+2].c1cc[cH-]c1` [Mar105, [(1E,6E)-7-(4-hydroxy-3-methoxyphenyl)-3,5-dioxo-1,6-heptadien-1-yl]ferrocene], the EC50 in series [1] (cytotoxicity) was over 25 µM. The IC50 in series [2] was determined as 10 ± 1 µM. Also, the “% Inhibition of Enzymatic Activity of HsTIM at 10 µM” value in series [3] worked out at 0%. Moreover, in the series with R. microplus, the “acaricidal activity (in words)” value is listed as “did not show reproducible acaricidal activity”.
Consider Ivermectin [reference compound], for which, in series [5] (commercial ivermectin control at 0.082 mM), the “% of Mortality LIT” value is 100%.
Turning to `O=C(/C=C/c1ccsc1)/C=C/c1ccsc1` [compound 1387], the concentration for a half-maximal effect (EC50) in series [1] (setting [6]) is over 50 µM. Further, in series [2], the IC50 was under 10 µM. For the same compound, the inhibition at 10 µM stood at 100% in series [2] (setting [7]) and 0% in series [3]. Besides, the “acaricidal activity (in words)” value in the series with R. microplus is on record as “did not show reproducible acaricidal activity”.
For the compound `O=C1/C(=C2\Nc3ccccc3C2=O)Nc2ccccc21` [compound 879], the inhibition at 100 µM in series [4] came out at 9%. For the same compound, in series [1] (setting [6]), the EC50 was over 50 µM. The half-inhibitory concentration (IC50) in series [2] is under 10 µM. The inhibition at 10 µM was determined as 95% in series [2] (setting [7]) and 0% in series [3]. For the same compound, the “acaricidal activity (in words)” value with R. microplus was “did not show reproducible acaricidal activity”.
Consider `O=C1/C(=C/c2ccccc2)CCC/C1=C\c1ccccc1` [compound 799], for which, in series [1] (setting [6]), the EC50 is over 50 µM. Besides, the concentration for half-maximal inhibition (IC50) in series [2] was under 10 µM. The inhibition at 10 µM in series [2] (setting [7]) is 88%; in series [3], 0%. In addition, the “acaricidal activity (in words)” value with R. microplus is reported as “did not show reproducible acaricidal activity”.

Source of the values: PMC9781803, “Phenotypic and Target-Directed Screening Yields New Acaricidal Alternatives for the Control of Ticks” (Molecules, 2022).
